How the values were obtained:
[1] = tested on: IPOHE (Ipomoea hederacea); experiment: Preemergence herbicidal evaluation; type: in vivo, (L.) Jacq.; details: preemergence, rated 4-5 weeks after treatment
SETVI (Setaria viridis) [2] = experiment: Preemergence herbicidal evaluation; type: in vivo, (L.) Beau; details: preemergence, rated 4-5 weeks after treatment
Outline: (§1)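 Test compound is applied in aqueous acetone to cups just after seeding. Cups are watered and maintained on greenhouse benches. Each cup is scored 0–9 by eye relative to a control after four to five weeks.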

[3] = tested on: ECHCG (Echinochloa crus-galli); experiment: Preemergence herbicidal evaluation; type: in vivo, (L.) Beau; details: preemergence, rated 4-5 weeks after treatment
Outline: as §1

CYPIR (Cyperus iria) = experiment: Flooded paddy, preemergence weed control; type: in vivo; details: rated 3-4 weeks after treatment, 0-9 rating scale
Outline: (§2)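 Visual 0-9 rating versus control, scoring stand, vigor, malformation, size, chlorosis and overall appearance. Silt loam soil, propagules in top 0.5 cm; flood depth 1.5–3 cm held for the whole test; greenhouse.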

[4] = tested on: IPOHE (Ipomoea hederacea); experiment: Postemergence herbicidal evaluation; type: in vivo, (L.) Jacq.
Outline: (§3)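 Seedlings grown for about two weeks were sprayed postemergence and then kept under standard greenhouse care. Injury was rated visually 4–5 weeks after treatment on a 0–9 scale against untreated controls, and ratings from repeat tests were averaged.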

[5] = tested on: GLXMAW (Soybean, Williams); experiment: Postemergence herbicidal evaluation; type: in vivo, Glycine max, (L.) Merr. cv Williams
Outline: as §3

GALAP (Galium aparine) = experiment: Postemergence herbicidal evaluation; type: in vivo
Outline: as §3

[6] = tested on: ECHORC (Echinochloa oryzoides); experiment: Flooded paddy, preemergence weed control; type: in vivo, Echinochloa oryzoides (Ard.) Fritsch.; details: rated 3-4 weeks after treatment, 0-9 rating scale
Outline: as §2

ORYSAT (Rice, Tebonnet) [7] = experiment: Postemergence herbicidal evaluation; type: in vivo, Oryza sativa, (L.) Tebonnet
Outline: as §3

[8] = tested on: MOOVA (Monochoria vaginalis); experiment: Flooded paddy, preemergence weed control; type: in vivo, Presl.; details: rated 3-4 weeks after treatment, 0-9 rating scale
Outline: as §2

ORYSAT (Rice, Tebonnet) [9] = experiment: Preemergence herbicidal evaluation; type: in vivo, Oryza sativa, (L.) Tebonnet; details: preemergence, rated 4-5 weeks after treatment
[10] = tested on: CHEAL (Chenopodium album); experiment: Preemergence herbicidal evaluation; type: in vivo, L.; details: preemergence, rated 4-5 weeks after treatment
Outline: as §1

[11] = tested on: CASOB (Cassia obtusifolia); experiment: Preemergence herbicidal evaluation; type: in vivo, L.; details: preemergence, rated 4-5 weeks after treatment
Outline: as §1

[12] = tested on: AMBEL (Ambrosia artemisifolia); experiment: Preemergence herbicidal evaluation; type: in vivo, L.; details: preemergence, rated 4-5 weeks after treatment
Outline: as §1

ZEAMX (Corn, Field) = experiment: Postemergence herbicidal evaluation; type: in vivo, Zea mays, L.
Outline: as §3

SETVI (Setaria viridis) [13] = experiment: Postemergence herbicidal evaluation; type: in vivo, (L.) Beau
Outline: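 Ratings use a 0-9 visual scale covering stand, vigor, malformation, size, chlorosis and appearance versus a control, scored 4-5 weeks post-spray. Roughly two-week-old seedlings received about 0.0040-1.000 kg/ha active, applied in 50/50 acetone/water with 0.5% TWEEN 20. Multiple tests per compound were averaged.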

[14] = tested on: ECHCG (Echinochloa crus-galli); experiment: Postemergence herbicidal evaluation; type: in vivo, (L.) Beau
Outline: as §3

[15] = tested on: ABUTH (Abutilon theophrasti); experiment: Postemergence herbicidal evaluation; type: in vivo, Medic.
Outline: as §3

ORYSAT (Rice, Tebonnet) [16] = experiment: Flooded paddy, post-transplant rice tolerance; type: in vivo, Oryza sativa, (L.) Tebonnet; details: flooded paddy, post-transplant rice, rated 3-4 weeks after treatment, 0-9 rating scale
Outline: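 Seedlings aged ten days are transplanted in pairs into undrained pots of silt loam, which are then flooded to a depth of 1.5 to 3 cm. After herbicide application the pots are kept in a greenhouse with the flood maintained. Plants are rated 0-9 by visual comparison with controls.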

Q: What does the source list for `Cc1ccc(-c2nsc3ccc(N4C(=O)C5=C(CCCC5)C4=O)cc23)s1` [Compound 20, N-[3-(5-methyl-2-thienyl)-1,2-benzisothiazol-5-yl]-1-cyclohexene-1,2-dicarboximide]?
A: IPOHE preemergence herbicidal rating ([1]; Rate 0.0620 kg/ha): 0.0; IPOHE preemergence herbicidal rating ([1]; Rate 0.1250 kg/ha): 0.0; IPOHE preemergence herbicidal rating ([1]; Rate 0.2500 kg/ha): 0.0; SETVI preemergence herbicidal rating (SETVI (Setaria viridis) [2]; Rate 0.0620 kg/ha): 0.0; SETVI preemergence herbicidal rating (SETVI (Setaria viridis) [2]; Rate 0.1250 kg/ha): 0.0; SETVI preemergence herbicidal rating (SETVI (Setaria viridis) [2]; Rate 0.2500 kg/ha): 0.0; ECHCG preemergence herbicidal rating ([3]; Rate 0.0620 kg/ha): 0.0; ECHCG preemergence herbicidal rating ([3]; Rate 0.1250 kg/ha): 0.0; ECHCG preemergence herbicidal rating ([3]; Rate 0.2500 kg/ha): 0.0; herbicidal rating, CYPIR (CYPIR (Cyperus iria); rate 0.0320 kg/ha): 2.0; herbicidal rating, CYPIR (CYPIR (Cyperus iria); rate 0.1250 kg/ha): 3.0; Postemergence herbicidal rating, IPOHE ([4]; rate 0.0320 kg/ha): 6.0; Postemergence herbicidal rating, IPOHE ([4]; rate 0.0620 kg/ha): 9.0; Postemergence herbicidal rating, IPOHE ([4]; rate 0.1250 kg/ha): 9.0; Postemergence herbicidal rating, GLXMAW ([5]; rate 0.0320 kg/ha): 5.5; Postemergence herbicidal rating, GLXMAW ([5]; rate 0.0620 kg/ha): 5.5; Postemergence herbicidal rating, GLXMAW ([5]; rate 0.1250 kg/ha): 5.5; Postemergence herbicidal rating, GALAP (GALAP (Galium aparine); rate 0.0320 kg/ha): 1.0; Postemergence herbicidal rating, GALAP (GALAP (Galium aparine); rate 0.0620 kg/ha): 1.0; Postemergence herbicidal rating, GALAP (GALAP (Galium aparine); rate 0.1250 kg/ha): 1.0; herbicidal rating, ECHORC ([6]; rate 0.0320 kg/ha): 5.0; herbicidal rating, ECHORC ([6]; rate 0.1250 kg/ha): 7.0; Postemergence herbicidal rating, ORYSAT (ORYSAT (Rice, Tebonnet) [7]; rate 0.0320 kg/ha): 2.5; Postemergence herbicidal rating, ORYSAT (ORYSAT (Rice, Tebonnet) [7]; rate 0.0620 kg/ha): 3.0; Postemergence herbicidal rating, ORYSAT (ORYSAT (Rice, Tebonnet) [7]; rate 0.1250 kg/ha): 4.5; herbicidal rating, MOOVA ([8]; rate 0.0320 kg/ha): 9.0; herbicidal rating, MOOVA ([8]; rate 0.1250 kg/ha): 9.0; ORYSAT preemergence herbicidal rating (ORYSAT (Rice, Tebonnet) [9]; Rate 0.0620 kg/ha): 0.0; ORYSAT preemergence herbicidal rating (ORYSAT (Rice, Tebonnet) [9]; Rate 0.1250 kg/ha): 0.0; ORYSAT preemergence herbicidal rating (ORYSAT (Rice, Tebonnet) [9]; Rate 0.2500 kg/ha): 0.0; CHEAL preemergence herbicidal rating ([10]; Rate 0.0620 kg/ha): 0.0; CHEAL preemergence herbicidal rating ([10]; Rate 0.1250 kg/ha): 2.0; CHEAL preemergence herbicidal rating ([10]; Rate 0.2500 kg/ha): 3.0; CASOB preemergence herbicidal rating ([11]; Rate 0.0620 kg/ha): 0.0; CASOB preemergence herbicidal rating ([11]; Rate 0.1250 kg/ha): 0.0; CASOB preemergence herbicidal rating ([11]; Rate 0.2500 kg/ha): 2.0; AMBEL preemergence herbicidal rating ([12]; Rate 0.0620 kg/ha): 0.0; AMBEL preemergence herbicidal rating ([12]; Rate 0.1250 kg/ha): 1.0; AMBEL preemergence herbicidal rating ([12]; Rate 0.2500 kg/ha): 2.0; Postemergence herbicidal rating, ZEAMX (ZEAMX (Corn, Field); rate 0.0320 kg/ha): 5.0; Postemergence herbicidal rating, ZEAMX (ZEAMX (Corn, Field); rate 0.0620 kg/ha): 5.0; Postemergence herbicidal rating, ZEAMX (ZEAMX (Corn, Field); rate 0.1250 kg/ha): 5.5; Postemergence herbicidal rating, SETVI (SETVI (Setaria viridis) [13]; rate 0.0320 kg/ha): 2.0; Postemergence herbicidal rating, SETVI (SETVI (Setaria viridis) [13]; rate 0.0620 kg/ha): 2.0; Postemergence herbicidal rating, SETVI (SETVI (Setaria viridis) [13]; rate 0.1250 kg/ha): 2.0; Postemergence herbicidal rating, ECHCG ([14]; rate 0.0320 kg/ha): 1.0; Postemergence herbicidal rating, ECHCG ([14]; rate 0.0620 kg/ha): 1.0; Postemergence herbicidal rating, ECHCG ([14]; rate 0.1250 kg/ha): 1.0; Postemergence herbicidal rating, ABUTH ([15]; rate 0.0320 kg/ha): 7.0; Postemergence herbicidal rating, ABUTH ([15]; rate 0.0620 kg/ha): 9.0; Postemergence herbicidal rating, ABUTH ([15]; rate 0.1250 kg/ha): 9.0; herbicidal rating, ORYSAT (rice tolerance) (ORYSAT (Rice, Tebonnet) [16]; rate 0.0320 kg/ha): 2.0; herbicidal rating, ORYSAT (rice tolerance) (ORYSAT (Rice, Tebonnet) [16]; rate 0.1250 kg/ha): 2.0
